According to PubChem BioAssay AID787 (PCMD, 2007):
Calls of active or inactive are those of the source. No rule for the calls is given here.

molecular target: Complement C1s subcomponent (Homo sapiens) (UniProt P09871); assay: concentration-response of complement C1s inhibitors – biochemical, dose response (AID 787); conditions: purified C1s enzyme, fluorogenic substrate, FU read-out
Sequence (P09871 16-437 limits assumed): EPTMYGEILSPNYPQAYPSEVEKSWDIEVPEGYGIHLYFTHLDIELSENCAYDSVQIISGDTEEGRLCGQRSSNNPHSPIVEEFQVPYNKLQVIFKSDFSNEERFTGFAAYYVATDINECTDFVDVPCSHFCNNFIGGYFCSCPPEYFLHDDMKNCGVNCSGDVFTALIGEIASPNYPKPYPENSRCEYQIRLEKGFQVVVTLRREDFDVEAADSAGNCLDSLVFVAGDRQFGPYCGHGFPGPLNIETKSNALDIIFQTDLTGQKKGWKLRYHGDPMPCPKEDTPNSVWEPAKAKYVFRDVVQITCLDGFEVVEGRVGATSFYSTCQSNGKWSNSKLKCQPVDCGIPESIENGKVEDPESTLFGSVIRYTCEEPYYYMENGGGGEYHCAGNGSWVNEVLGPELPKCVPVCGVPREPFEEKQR
Sequence (P09871 438-688 limits assumed): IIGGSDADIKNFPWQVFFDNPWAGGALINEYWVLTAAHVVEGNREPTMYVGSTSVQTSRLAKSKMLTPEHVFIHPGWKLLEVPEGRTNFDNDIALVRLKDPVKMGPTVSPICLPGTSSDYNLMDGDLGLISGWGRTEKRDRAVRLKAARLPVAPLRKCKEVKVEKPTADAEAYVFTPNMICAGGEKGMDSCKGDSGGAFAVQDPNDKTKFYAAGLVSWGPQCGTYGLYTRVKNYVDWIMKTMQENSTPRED

IC50, inactive:
COC(=O)Cc1[nH]nc2c1C1(C(=O)N(Cc3ccccc3)c3ccccc31)C(C#N)=C(N)O2 (centres undefined) > 50 µM
O=C1CCCC(O)=C1C=NCCc1ccccc1 > 50 µM
Cc1cccc(COc2ccc(/C(O)=C3\C(=O)C(=O)N(CCN(C)C)C3c3ccncc3)cc2)c1 (centres undefined) > 50 µM
CCOC(=O)N1CC=C2C(C#N)=C(N)C(C#N)(C#N)[C@H](c3ccccc3OCC)[C@H]2C1 > 50 µM
COc1ccc(NC(=O)CSC2=C(C#N)C(c3ccco3)C3=C(CCCC3=O)N2)c(OC)c1 (centres undefined) > 50 µM
O=C(Oc1ccc(Cl)cc1N1C(=O)CCC1=O)c1ccco1 > 50 µM
COc1cccc(C2=CC(c3cccc(OC)c3OC)n3nnnc3N2)c1 (centres undefined) > 50 µM
CCOc1ccc(N2C(=O)CC(N3CCN(c4ccccc4F)CC3)C2=O)cc1 (centres undefined) > 50 µM
O=C1CCCC2=C1C1(CCCCC1)N=C(Nc1nc3ccccc3o1)N2 > 50 µM
